Experimental data reported in patent publication US20250270190A1, “KIT INHIBITORS” (BLUEPRINT MEDICINES CORPORATION, priority 2022, published 2025).
Counter-ions that a name gives are not always drawn.

Each molecule was assayed against T1, c-kit autophosphorylation (Phospho c-Kit Tyr721) in HMC 1.1 (exon 11/13) cells, V654A (Homo sapiens, UniProt P10721, V560G/V654A) (assay: pKIT Meso Scale Discovery (MSD) assay, inhibition of autophosphorylation of KIT, HMC1.1_V654A). Conditions: Table 1, cell line not named for Table 1, b1056 names pKIT HMC1.1_V654A, read-out: Code (IC50 for inhibition of autophosphorylation of KIT, pKIT MSD assay).
T1 construct: endogenous in cells; host or cells: HMC 1.1 (exon 11/13) cells
Type: cell-based
How it was run: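 HMC1.1 cells were serum-starved for 4 h in serum-free, iron-free, phenol red-free IMDM, then treated with compound in dose-response for 90 min at 37 °C. Staurosporine and DMSO served as controls. Lysates were analysed by MSD electrochemiluminescence immunoassay for phospho-c-Kit Tyr721, and % inhibition of autophosphorylation was derived.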

T1 sequence (P10721 26-976 V560G/V654A): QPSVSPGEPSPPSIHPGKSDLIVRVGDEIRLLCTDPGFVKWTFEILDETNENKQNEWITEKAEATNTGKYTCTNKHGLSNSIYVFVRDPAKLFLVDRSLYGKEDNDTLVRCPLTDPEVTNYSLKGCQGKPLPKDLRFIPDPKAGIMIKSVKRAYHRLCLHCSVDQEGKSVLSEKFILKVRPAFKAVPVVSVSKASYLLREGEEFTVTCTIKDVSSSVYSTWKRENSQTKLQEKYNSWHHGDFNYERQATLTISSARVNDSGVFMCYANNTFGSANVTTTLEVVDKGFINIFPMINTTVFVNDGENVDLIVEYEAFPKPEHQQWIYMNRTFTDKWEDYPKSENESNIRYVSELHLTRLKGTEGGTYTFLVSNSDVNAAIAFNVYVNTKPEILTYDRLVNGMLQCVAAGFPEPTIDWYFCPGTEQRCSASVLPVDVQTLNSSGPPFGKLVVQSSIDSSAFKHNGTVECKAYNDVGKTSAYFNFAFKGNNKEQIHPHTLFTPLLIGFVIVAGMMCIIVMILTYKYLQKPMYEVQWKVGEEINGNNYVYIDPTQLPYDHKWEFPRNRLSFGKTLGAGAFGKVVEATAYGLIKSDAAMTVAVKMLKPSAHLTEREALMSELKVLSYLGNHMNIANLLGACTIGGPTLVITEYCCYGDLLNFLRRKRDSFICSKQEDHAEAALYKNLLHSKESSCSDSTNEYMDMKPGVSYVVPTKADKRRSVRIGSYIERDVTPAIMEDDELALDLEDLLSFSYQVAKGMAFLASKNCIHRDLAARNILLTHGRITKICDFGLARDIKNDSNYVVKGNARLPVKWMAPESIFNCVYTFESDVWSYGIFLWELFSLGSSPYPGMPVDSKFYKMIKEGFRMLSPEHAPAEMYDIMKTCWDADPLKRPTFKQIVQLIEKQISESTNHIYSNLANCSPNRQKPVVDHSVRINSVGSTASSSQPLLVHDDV

Molecule	IC50 [µM]
CNCCn1cc(-c2cnc(Nc3cc(N)nc(C(F)F)n3)cc2OC2CC2)cn1 [Compound 136, N4-(4-cyclopropoxy-5-(1-(2-(methylamino)ethyl)-1H-pyrazol-4-yl)pyridin-2-yl)-2-(difluoromethyl)pyrimidine-4,6-diamine]	< 0.01
Nc1cc(Nc2cc(NC3CC3)c(C(=O)NC34CC(CO)(C3)C4)cn2)nc(C(F)F)n1 [Compound 174, 6-((6-amino-2-(difluoromethyl)pyrimidin-4-yl)amino)-4-(cyclopropylamino)-N-(3-(hydroxymethyl)bicyclo[1.1.1]pentan-1-yl)nicotinamide]	< 0.01
CNC(=O)c1cnc(Nc2cc(N)nc(C(F)F)n2)cc1N[C@@H](C)C(F)F [Compound 74, (S)-6-((6-amino-2-(difluoromethyl)pyrimidin-4-yl)amino)-4-((1,1-difluoropropan-2-yl)amino)-N-methylnicotinamide]	< 0.01
COc1cc(Nc2cc(N)nc(CF)n2)ncc1-c1cnn(C2CNC2)c1 [Compound 50, N4-(5-(1-(azetidin-3-yl)-1H-pyrazol-4-yl)-4-methoxypyridin-2-yl)-2-(fluoromethyl)pyrimidine-4,6-diamine]	> 0.04
CNC(C)(C)Cn1cc(-c2cnc(Nc3cc(N)nc(C(F)F)n3)cc2OC(F)F)cn1 [Compound 193, N4-(4-(difluoromethoxy)-5-(1-(2-methyl-2-(methylamino)propyl)-1H-pyrazol-4-yl)pyridin-2-yl)-2-(difluoromethyl)pyrimidine-4,6-diamine]	< 0.01
Nc1cc(Nc2cc(OC3CC3)c(-c3cnn([C@@H]4CCOC4)c3)cn2)nc(C(F)F)n1 (single isomer, unassigned) [Compound 165, (R)—N4-(4-cyclopropoxy-5-(1-(tetrahydrofuran-3-yl)-1H-pyrazol-4-yl)pyridin-2-yl)-2-(difluoromethyl)pyrimidine-4,6-diamine or (S)—N4-(4-cyclopropoxy-5-(1-(tetrahydrofuran-3-yl)-1H-pyrazol-4-yl)pyridin-2-yl)-2-(difluoromethyl)pyrimidine-4,6-diamine]	< 0.01
Cn1cc(-c2cnc(Nc3cc(N)nc(C(F)F)n3)cc2OCC2CCCO2)cn1 (stereo not shown) [Compound 143, 2-(difluoromethyl)-N4-(5-(1-methyl-1H-pyrazol-4-yl)-4-((tetrahydrofuran-2-yl)methoxy)pyridin-2-yl)pyrimidine-4,6-diamine]	< 0.01
COc1cc(Nc2cc(N)nc(C(F)F)n2)ncc1-c1cnn(C2CNC2)c1 [Compound 76, N4-(5-(1-(azetidin-3-yl)-1H-pyrazol-4-yl)-4-methoxypyridin-2-yl)-2-(difluoromethyl)pyrimidine-4,6-diamine formate]	> 0.04
CC(C)(O)Cn1cc(-c2cnc(Nc3cc(N)nc(C(F)F)n3)cc2OC(F)F)cn1 [Compound 181, 1-(4-(6-((6-amino-2-(difluoromethyl)pyrimidin-4-yl)amino)-4-(difluoromethoxy)pyridin-3-yl)-1H-pyrazol-1-yl)-2-methylpropan-2-ol]	< 0.01
C[C@@H](CF)Nc1cc(Nc2cc(N)nc(C(F)F)n2)ncc1C(=O)NC1CC1 [Compound 90, (S)-6-((6-amino-2-(difluoromethyl)pyrimidin-4-yl)amino)-N-cyclopropyl-4-((1-fluoropropan-2-yl)amino)nicotinamide]	< 0.01
COCCn1cc(-c2cnc(Nc3cc(N)nc(C(F)F)n3)cc2OC)cn1 [Compound 84, 2-(difluoromethyl)-N4-(4-methoxy-5-(1-(2-methoxyethyl)-1H-pyrazol-4-yl)pyridin-2-yl)pyrimidine-4,6-diamine]	< 0.01
CC(C)Oc1cc(Nc2cc(N)nc([C@H](C)F)n2)ncc1-c1cnn(C)c1 [Compound 51, (S)-2-(1-fluoroethyl)-N4-(4-isopropoxy-5-(1-methyl-1H-pyrazol-4-yl)pyridin-2-yl)pyrimidine-4,6-diamine]	< 0.01
Cn1cc(-c2cnc(Nc3cc(N)nc(C(F)F)n3)cc2OCC2CC(O)C2)cn1 (stereo not shown) [Compound 145, 3-(((2-((6-amino-2-(difluoromethyl)pyrimidin-4-yl)amino)-5-(1-methyl-1H-pyrazol-4-yl)pyridin-4-yl)oxy)methyl)cyclobutan-1-ol]	0.01 to 0.04
CCNC(=O)c1cnc(Nc2cc(N)nc(C(F)F)n2)cc1NC [Compound 13, 6-((6-amino-2-(difluoromethyl)pyrimidin-4-yl)amino)-N-ethyl-4-(methylamino)nicotinamide]	0.01 to 0.04
C[C@@H](Oc1cc(Nc2cc(N)nc(C(F)F)n2)ncc1-c1cnn(C)c1)C(F)(F)F [Compound 163, (R)-2-(difluoromethyl)-N4-(5-(1-methyl-1H-pyrazol-4-yl)-4-((1,1,1-trifluoropropan-2-yl)oxy)pyridin-2-yl)pyrimidine-4,6-diamine]	< 0.01
CNC(=O)c1cnc(Nc2cc(N)nc(C(F)F)n2)cc1NC1CCC1 [Compound 37, 6-((6-amino-2-(difluoromethyl)pyrimidin-4-yl)amino)-4-(cyclobutylamino)-N-methylnicotinamide]	< 0.01

Molecule	IC50 [µM]
CN[C@@H](C)Cn1cc(-c2cnc(Nc3cc(N)nc(C(F)F)n3)cc2OC(F)(F)F)cn1 (single isomer, unassigned) [Compound 195, (S)-2-(difluoromethyl)-N4-(5-(1-(2-(methylamino)propyl)-1H-pyrazol-4-yl)-4-(trifluoromethoxy)pyridin-2-yl)pyrimidine-4,6-diamine or (R)-2-(difluoromethyl)-N4-(5-(1-(2-(methylamino)propyl)-1H-pyrazol-4-yl)-4-(trifluoromethoxy)pyridin-2-yl)pyrimidine-4,6-diamine]	< 0.01
6-((6-amino-4-(difluoromethyl)pyridin-2-yl)amino)-4-(((1R,2S)-2-fluorocyclopropyl)amino)-N-methylnicotinamide [Compound 44]	0.01 to 0.04
CNC(=O)c1cnc(Nc2cc(N)nc(CF)n2)cc1NC [Compound 1, 6-((6-amino-2-(fluoromethyl)pyrimidin-4-yl)amino)-N-methyl-4-(methylamino)nicotinamide]	0.01 to 0.04
CCOc1cc(Nc2cc(N)nc(C(F)F)n2)ncc1-c1cnn(CCN)c1 [Compound 81, N4-(5-(1-(2-aminoethyl)-1H-pyrazol-4-yl)-4-ethoxypyridin-2-yl)-2-(difluoromethyl)pyrimidine-4,6-diamine]	0.01 to 0.04
Cn1cc(-c2cnc(Nc3cc(N)nc(C(F)F)n3)cc2OCC2COC2)cn1 [Compound 104, 2-(difluoromethyl)-N4-(5-(1-methyl-1H-pyrazol-4-yl)-4-(oxetan-3-ylmethoxy)pyridin-2-yl)pyrimidine-4,6-diamine]	< 0.01
CNC(=O)c1cnc(Nc2cc(N)nc(C(F)F)n2)cc1NCc1ccccc1 [Compound 92, 6-((6-amino-2-(difluoromethyl)pyrimidin-4-yl)amino)-4-(benzylamino)-N-methylnicotinamide]	0.01 to 0.04
C[C@@H](CF)Nc1cc(Nc2cc(N)nc(C(F)F)n2)ncc1C(=O)NCc1cocn1 [Compound 176, (S)-6-((6-amino-2-(difluoromethyl)pyrimidin-4-yl)amino)-4-((1-fluoropropan-2-yl)amino)-N-(oxazol-4-ylmethyl)nicotinamide]	< 0.01
CCCNc1cc(Nc2cc(N)nc(C(F)F)n2)ncc1C(=O)NC [Compound 26, 6-((6-amino-2-(difluoromethyl)pyrimidin-4-yl)amino)-N-methyl-4-(propylamino)nicotinamide]	< 0.01
CNc1cc(Nc2cc(N)nc(C(F)F)n2)ncc1-c1cn(C)nn1 [Compound 17, 2-(difluoromethyl)-N4-(5-(1-methyl-1H-1,2,3-triazol-4-yl)-4-(methylamino)pyridin-2-yl)pyrimidine-4,6-diamine]	0.01 to 0.04
CNc1cc(Nc2cc(N)nc(C(F)F)n2)ncc1-c1cnn(C)n1 [Compound 18, 2-(difluoromethyl)-N4-(5-(2-methyl-2H-1,2,3-triazol-4-yl)-4-(methylamino)pyridin-2-yl)pyrimidine-4,6-diamine]	0.01 to 0.04
CC(C)(O)Cn1cc(-c2cnc(Nc3cc(N)nc(C(F)F)n3)cc2OC(F)(F)F)cn1 [Compound 198, 1-(4-(6-((6-amino-2-(difluoromethyl)pyrimidin-4-yl)amino)-4-(trifluoromethoxy)pyridin-3-yl)-1H-pyrazol-1-yl)-2-methylpropan-2-ol]	< 0.01
C[C@@H](CF)Oc1cc(Nc2cc(N)nc(C(F)F)n2)ncc1-c1cnn(C)c1 (single isomer, unassigned) [Compound 87, (S)-2-(difluoromethyl)-N4-(4-((1-fluoropropan-2-yl)oxy)-5-(1-methyl-1H-pyrazol-4-yl)pyridin-2-yl)pyrimidine-4,6-diamine or (R)-2-(difluoromethyl)-N4-(4-((1-fluoropropan-2-yl)oxy)-5-(1-methyl-1H-pyrazol-4-yl)pyridin-2-yl)pyrimidine-4,6-diamine]	< 0.01
CNC(=O)c1cnc(Nc2cc(N)nc(CF)n2)cc1N[C@@H]1CCOC1 [Compound 35, (R)-6-((6-amino-2-(fluoromethyl)pyrimidin-4-yl)amino)-N-methyl-4-((tetrahydrofuran-3-yl)amino)nicotinamide]	> 0.04
CCNc1cc(Nc2cc(N)nc(C(F)F)n2)ncc1C(=O)NC [Compound 12, 6-((6-amino-2-(difluoromethyl)pyrimidin-4-yl)amino)-4-(ethylamino)-N-methylnicotinamide]	< 0.01
CNC(=O)c1cnc(Nc2cc(N)nc(CF)n2)cc1N[C@@H](C)C(F)F [Compound 46, (S)-6-((6-amino-2-(fluoromethyl)pyrimidin-4-yl)amino)-4-((1,1-difluoropropan-2-yl)amino)-N-methylnicotinamide]	< 0.01
